This note sets out measurements from EP0294695A2, “New polyoxygenated labdane derivatives, a process for their preparation, and their use as medicaments” (HOECHST AKTIENGESELLSCHAFT, priority 1987, dated 1988).

The test is described as follows: reduction of intraocular pressure. It is filed as in vivo. As to conditions: 2% strength solution of the test compound; for Duration: duration of the decrease in intraocular pressure. An excerpt:
The results of investigations into the reduction of intraocular pressure by some typical compounds of the formula I, according to the invention, are listed in Table 2. The results are expressed as the percentage decrease in the intraocular pressure when a 2% strength solution of the test compound is used.

Regarding `C=C[C@@]1(C)CC(=O)[C@]2(O)[C@@]3(C)[C@@H](OC(=O)Nc4ccccc4)CCC(C)(C)[C@@H]3[C@H](O)[C@H](OC(=O)Nc3ccccc3)[C@@]2(C)O1` [Compound 1], the “Decrease in intraocular pressure(%)” value came out at 18% and the Duration turned out to be 5 h.

As to `C=C[C@@]1(C)CC(=O)[C@]2(O)[C@@]3(C)[C@@H](O)CCC(C)(C)[C@@H]3[C@H](O)[C@H](OC(=O)NC)[C@@]2(C)O1` [Compound 2, 8,13-Epoxy-7β-methylaminocarbonyloxy-1α,6β,9α-trihydroxylabd-14-en-11-one], the “Decrease in intraocular pressure(%)” value is 23% and the Duration was 5 h.

On to `C=C[C@@]1(C)CC(=O)[C@]2(O)[C@@]3(C)[C@@H](O)CCC(C)(C)[C@@H]3[C@H](O)[C@H](OC(=O)NC(C)C)[C@@]2(C)O1` [Compound 3, 7β-isopropylaminocarbonyloxy-8,13-epoxy-1α,6β,9α-trihydroxylabd-14-en-11-one], for which the “Decrease in intraocular pressure(%)” value is 34% and the Duration turned out to be 6 h.

In the case of `C=C[C@@]1(C)CC(=O)[C@]2(O)[C@@]3(C)[C@@H](O)CCC(C)(C)[C@@H]3[C@H](O)[C@H](OC(=O)NC(C)(C)C)[C@@]2(C)O1` [Compound 4, 7β-t-Butylaminocarbonyloxy-8,13-epoxy-1α,6β9α-trihydroxylabd-14-en-11-one], the “Decrease in intraocular pressure(%)” value was 21% and the Duration is 6 h.
